Results reported in PMC5031509 (ACS chemical neuroscience, 2016).
pEC50, pIC50: −log10 of the molar value.

Columns and labels:
rat mGlu4 = rat mGlu4 (Rattus norvegicus, UniProt P31423); experiment: functional assay using the rat mGlu4 protein; format: cell-based
[1] = plasma protein binding, rat; format: in vitro ADME
[2] = plasma protein binding, human; format: in vitro ADME
[3] = plasma protein binding, dog; format: in vitro ADME
[4] = plasma protein binding, mouse; format: in vitro ADME
[5] = plasma protein binding, rhesus; format: in vitro ADME; conditions: rhesus monkey
CYP1A2 [6] = target: T1, CYP1A2 (Homo sapiens, UniProt P05177); experiment: CYP450 inhibition, cocktail approach in human liver microsomes; format: in vitro ADME
T1 sequence (P05177 1-516): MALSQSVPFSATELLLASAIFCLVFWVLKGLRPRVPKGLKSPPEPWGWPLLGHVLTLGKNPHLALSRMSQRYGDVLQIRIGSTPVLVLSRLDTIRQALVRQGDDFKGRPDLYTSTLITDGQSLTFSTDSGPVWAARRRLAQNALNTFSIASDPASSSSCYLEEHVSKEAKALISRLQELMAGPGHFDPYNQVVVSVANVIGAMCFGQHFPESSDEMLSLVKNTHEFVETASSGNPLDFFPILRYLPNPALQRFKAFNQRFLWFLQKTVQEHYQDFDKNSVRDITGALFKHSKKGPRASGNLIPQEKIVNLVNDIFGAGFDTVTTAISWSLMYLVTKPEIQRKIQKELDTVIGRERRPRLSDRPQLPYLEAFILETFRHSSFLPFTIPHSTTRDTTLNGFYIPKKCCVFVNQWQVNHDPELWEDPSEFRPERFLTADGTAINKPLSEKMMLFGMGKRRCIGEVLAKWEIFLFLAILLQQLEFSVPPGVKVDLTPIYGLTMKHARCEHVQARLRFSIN

CYP2C9 = CYP2C9 (Homo sapiens, UniProt P11712); experiment: as above; format: in vitro ADME
CYP2D6 = CYP2D6 (Homo sapiens, UniProt P10635); experiment: as above; format: in vitro ADME
CYP3A4 = CYP3A4 (Homo sapiens, UniProt P08684); experiment: as above; format: in vitro ADME
CYP2C19 = CYP2C19 (Homo sapiens, UniProt P33261); experiment: CYP450 inhibition; format: in vitro ADME
[7] = in vivo PK, rhesus IV cassette; conditions: rhesus monkey, plasma
[8] = plasma/brain PO snapshot study in rats; format: in vivo, rat
P-glycoprotein (Pgp) = P-glycoprotein (Pgp) (Homo sapiens, UniProt P08183); experiment: Permeability; format: in vitro ADME
mGlu6 = mGlu6 (Homo sapiens, UniProt O15303); experiment: mGlu selectivity assays in fold-shift format; format: cell-based
[9] = test system: panel of GPCRs, enzymes, ion channels, nuclear hormone receptors and transporters; experiment: wider selectivity panel; conditions: all targets except MAO-B
[10] = target: T2, monoamine oxidase-B (MAO-B) (Homo sapiens, UniProt P27338); experiment: wider selectivity panel, MAO-B
T2 sequence (P27338 1-520): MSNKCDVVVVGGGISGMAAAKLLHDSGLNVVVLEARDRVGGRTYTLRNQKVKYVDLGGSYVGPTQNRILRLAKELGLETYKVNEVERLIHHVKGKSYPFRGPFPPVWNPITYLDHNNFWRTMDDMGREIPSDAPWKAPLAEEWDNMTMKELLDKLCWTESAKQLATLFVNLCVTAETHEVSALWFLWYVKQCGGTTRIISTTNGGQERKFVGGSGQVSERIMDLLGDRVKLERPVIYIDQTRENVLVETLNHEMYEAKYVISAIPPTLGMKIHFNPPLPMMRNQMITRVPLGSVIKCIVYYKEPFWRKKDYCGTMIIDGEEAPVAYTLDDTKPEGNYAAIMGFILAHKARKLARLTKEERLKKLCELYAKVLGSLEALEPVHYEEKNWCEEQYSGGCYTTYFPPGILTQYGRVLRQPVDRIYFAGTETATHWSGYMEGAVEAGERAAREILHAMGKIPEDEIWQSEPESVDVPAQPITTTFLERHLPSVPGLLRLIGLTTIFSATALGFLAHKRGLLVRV

[11] = test system: panel of 96 kinase targets; experiment: DiscoveRx KINOMEscan kinase panel; format: binding
[12] = test system: nine cardiac ion channels (including hERG); experiment: ChanTest Cardiac Channel Panel IC50 screen; conditions: human
CYP1A2 [13] = experiment: CYP1A2 induction in cryopreserved hepatocytes; format: cell-based, human
Met ID = format: in vitro ADME; conditions: rat liver microsomes
in vivo [14] = conditions: rat, iv, 1 mg/kg
in vivo [15] = conditions: rat, po, 10 mg/kg

Sequence of P-glycoprotein (Pgp) (P08183 whole entry): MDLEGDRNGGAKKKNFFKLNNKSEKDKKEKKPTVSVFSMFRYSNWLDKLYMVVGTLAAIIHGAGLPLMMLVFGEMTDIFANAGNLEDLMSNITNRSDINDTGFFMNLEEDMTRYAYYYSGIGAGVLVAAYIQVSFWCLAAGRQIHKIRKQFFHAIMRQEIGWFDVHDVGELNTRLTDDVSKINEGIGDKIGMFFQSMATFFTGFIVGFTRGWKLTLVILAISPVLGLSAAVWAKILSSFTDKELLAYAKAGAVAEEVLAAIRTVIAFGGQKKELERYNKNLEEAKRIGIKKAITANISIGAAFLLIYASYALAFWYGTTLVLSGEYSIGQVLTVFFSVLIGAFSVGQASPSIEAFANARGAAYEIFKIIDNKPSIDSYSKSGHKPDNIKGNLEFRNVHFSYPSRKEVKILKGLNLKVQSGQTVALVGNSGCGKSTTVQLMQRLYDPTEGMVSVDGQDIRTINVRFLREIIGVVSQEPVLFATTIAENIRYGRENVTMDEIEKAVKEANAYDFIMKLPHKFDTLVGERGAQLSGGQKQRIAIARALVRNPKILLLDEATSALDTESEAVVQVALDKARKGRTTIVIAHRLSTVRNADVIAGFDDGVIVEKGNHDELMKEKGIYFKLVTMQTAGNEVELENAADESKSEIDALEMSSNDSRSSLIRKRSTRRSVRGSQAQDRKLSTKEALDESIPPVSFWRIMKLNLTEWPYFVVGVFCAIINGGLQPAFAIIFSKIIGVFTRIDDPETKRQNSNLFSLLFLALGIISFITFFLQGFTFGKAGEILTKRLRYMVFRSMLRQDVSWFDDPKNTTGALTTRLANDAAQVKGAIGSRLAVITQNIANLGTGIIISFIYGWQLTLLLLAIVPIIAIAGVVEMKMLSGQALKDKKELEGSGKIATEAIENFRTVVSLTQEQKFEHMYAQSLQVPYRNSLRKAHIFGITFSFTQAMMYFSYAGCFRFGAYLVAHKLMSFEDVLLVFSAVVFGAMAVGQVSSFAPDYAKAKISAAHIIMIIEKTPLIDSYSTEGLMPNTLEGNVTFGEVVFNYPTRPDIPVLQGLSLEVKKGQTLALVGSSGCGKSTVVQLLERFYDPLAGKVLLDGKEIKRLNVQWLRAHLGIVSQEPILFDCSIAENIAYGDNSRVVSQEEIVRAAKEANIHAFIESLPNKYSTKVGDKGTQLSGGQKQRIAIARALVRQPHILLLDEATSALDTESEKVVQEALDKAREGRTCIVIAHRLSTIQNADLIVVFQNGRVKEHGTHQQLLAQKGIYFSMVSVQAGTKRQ
Sequence of CYP2D6 (P10635 whole entry): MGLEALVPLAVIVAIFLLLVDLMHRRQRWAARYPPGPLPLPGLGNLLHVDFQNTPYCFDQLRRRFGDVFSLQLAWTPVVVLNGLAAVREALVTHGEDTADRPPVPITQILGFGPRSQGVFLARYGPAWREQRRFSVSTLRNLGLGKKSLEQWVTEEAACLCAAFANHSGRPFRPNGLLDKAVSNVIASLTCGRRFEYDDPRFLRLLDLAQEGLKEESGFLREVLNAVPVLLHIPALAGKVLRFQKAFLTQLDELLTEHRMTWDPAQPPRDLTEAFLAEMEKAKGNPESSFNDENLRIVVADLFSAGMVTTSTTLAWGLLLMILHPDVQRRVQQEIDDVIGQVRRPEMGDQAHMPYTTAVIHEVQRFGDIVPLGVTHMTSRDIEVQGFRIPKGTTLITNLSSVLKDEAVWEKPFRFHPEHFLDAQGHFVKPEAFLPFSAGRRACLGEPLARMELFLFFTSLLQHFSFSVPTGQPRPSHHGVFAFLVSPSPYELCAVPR
Sequence of CYP3A4 (P08684 whole entry): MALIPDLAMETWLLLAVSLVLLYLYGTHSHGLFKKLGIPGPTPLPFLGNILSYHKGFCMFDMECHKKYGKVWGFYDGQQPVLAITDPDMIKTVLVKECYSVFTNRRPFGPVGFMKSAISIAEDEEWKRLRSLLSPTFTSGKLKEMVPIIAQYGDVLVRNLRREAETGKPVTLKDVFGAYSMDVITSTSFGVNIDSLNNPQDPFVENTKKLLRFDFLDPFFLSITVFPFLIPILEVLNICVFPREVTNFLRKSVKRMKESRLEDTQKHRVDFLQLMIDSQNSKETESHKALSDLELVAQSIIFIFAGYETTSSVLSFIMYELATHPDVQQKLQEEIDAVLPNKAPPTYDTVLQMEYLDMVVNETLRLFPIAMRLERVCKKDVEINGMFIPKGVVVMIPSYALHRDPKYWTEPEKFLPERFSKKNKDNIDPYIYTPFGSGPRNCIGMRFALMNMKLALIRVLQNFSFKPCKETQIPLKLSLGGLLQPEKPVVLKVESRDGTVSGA
Sequence of CYP2C9 (P11712 whole entry): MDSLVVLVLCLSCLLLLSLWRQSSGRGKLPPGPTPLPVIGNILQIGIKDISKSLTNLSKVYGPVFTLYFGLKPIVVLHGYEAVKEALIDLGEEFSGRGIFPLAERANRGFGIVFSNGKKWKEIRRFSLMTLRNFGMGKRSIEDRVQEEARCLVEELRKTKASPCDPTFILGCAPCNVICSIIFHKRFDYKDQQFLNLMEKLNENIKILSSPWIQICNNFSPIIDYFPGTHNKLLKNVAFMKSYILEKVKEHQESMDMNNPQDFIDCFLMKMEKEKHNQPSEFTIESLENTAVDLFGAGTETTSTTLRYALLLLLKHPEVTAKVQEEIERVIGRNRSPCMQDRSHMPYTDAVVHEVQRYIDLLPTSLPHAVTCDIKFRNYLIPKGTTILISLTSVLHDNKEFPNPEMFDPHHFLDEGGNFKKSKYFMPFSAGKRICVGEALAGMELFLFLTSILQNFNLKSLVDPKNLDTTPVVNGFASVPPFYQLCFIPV
Sequence of mGlu6 (O15303 25-877): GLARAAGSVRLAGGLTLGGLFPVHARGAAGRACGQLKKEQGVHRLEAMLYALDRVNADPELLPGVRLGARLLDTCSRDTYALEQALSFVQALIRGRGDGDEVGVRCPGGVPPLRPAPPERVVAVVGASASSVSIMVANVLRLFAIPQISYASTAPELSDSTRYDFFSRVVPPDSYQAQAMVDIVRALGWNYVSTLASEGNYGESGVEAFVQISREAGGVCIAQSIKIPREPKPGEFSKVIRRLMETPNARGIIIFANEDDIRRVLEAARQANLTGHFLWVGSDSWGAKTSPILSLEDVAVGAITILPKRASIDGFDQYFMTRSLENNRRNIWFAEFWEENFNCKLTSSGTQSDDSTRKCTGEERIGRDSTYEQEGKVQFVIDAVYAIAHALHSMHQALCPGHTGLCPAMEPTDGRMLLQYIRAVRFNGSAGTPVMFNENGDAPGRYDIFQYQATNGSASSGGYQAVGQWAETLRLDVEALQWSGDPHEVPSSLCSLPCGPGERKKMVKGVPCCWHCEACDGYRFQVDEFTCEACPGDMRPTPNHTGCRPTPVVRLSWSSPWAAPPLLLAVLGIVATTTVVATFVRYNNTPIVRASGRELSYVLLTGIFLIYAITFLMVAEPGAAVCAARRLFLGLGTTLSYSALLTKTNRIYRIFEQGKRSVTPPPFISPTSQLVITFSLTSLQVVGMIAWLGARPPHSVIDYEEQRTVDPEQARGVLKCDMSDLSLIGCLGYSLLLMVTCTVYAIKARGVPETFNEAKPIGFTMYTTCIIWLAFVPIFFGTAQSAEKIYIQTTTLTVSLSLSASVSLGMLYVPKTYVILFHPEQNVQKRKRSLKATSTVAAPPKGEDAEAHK
Sequence of rat mGlu4 (P31423 33-912): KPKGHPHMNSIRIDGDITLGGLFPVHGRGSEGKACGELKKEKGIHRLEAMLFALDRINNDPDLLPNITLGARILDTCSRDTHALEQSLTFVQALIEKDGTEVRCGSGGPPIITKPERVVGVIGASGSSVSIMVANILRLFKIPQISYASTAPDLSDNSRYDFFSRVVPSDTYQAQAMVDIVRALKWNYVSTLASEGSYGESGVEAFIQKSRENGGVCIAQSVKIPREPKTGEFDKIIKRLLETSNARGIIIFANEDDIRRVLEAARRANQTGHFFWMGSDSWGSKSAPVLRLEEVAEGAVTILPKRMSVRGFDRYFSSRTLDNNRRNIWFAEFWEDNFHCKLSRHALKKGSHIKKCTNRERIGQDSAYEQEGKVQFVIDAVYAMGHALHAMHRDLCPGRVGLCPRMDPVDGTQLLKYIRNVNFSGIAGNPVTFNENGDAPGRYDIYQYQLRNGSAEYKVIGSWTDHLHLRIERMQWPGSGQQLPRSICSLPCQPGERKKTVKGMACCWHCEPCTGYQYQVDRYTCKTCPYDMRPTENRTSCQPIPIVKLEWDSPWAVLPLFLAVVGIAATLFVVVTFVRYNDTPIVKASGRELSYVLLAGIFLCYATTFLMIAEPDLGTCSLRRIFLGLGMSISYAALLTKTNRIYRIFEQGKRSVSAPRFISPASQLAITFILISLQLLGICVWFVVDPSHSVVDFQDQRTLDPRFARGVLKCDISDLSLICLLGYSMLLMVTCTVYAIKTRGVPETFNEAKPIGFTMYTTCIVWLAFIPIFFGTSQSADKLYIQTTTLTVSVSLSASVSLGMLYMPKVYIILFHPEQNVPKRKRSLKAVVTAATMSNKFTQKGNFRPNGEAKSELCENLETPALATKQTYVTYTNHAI
Sequence of CYP2C19 (P33261 whole entry): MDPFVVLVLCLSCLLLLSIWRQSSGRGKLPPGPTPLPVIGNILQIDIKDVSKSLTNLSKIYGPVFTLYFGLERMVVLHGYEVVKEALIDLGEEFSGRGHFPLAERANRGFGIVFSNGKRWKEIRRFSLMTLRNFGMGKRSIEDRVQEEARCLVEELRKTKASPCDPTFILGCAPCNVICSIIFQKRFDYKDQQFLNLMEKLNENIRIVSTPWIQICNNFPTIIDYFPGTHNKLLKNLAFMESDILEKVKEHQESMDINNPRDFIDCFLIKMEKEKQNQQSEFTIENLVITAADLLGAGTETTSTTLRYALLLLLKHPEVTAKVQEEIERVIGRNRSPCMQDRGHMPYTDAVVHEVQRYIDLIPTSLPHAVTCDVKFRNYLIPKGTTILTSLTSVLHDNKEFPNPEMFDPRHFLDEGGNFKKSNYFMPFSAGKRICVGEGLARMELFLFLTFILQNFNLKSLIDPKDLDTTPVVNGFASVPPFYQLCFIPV

Work on Fc1ccc(Nc2n[nH]c3cccnc23)cc1Cl [Compound 26, N-(3-chloro-4-fluorophenyl)-1H-pyrazolo[4,3-b]pyridin-3-amine] yielded a pEC50 (rat mGlu4) of 7.34, a fraction unbound ([1]; plasma protein binding (%Fu)) of 0.028 and a fraction unbound ([1]; plasma protein binding (Fu), rat plasma, fraction unbound) of 0.028. For the same molecule, the “plasma protein binding (%Fu)” value [2] was 1.7%, the fraction unbound ([2]; plasma) was 0.017 and the fraction unbound [3] was 0.009. It also gave a fraction unbound [4] of 0.019, a fraction unbound [5] of 0.014 and a pIC50 (CYP1A2 [6]) greater than 7.00. For the same molecule, the pIC50 (CYP2C9) was 5.05, the pIC50 (CYP2D6) was less than 4.52 and the pIC50 (CYP3A4) was less than 4.52. It also gave a pIC50 (CYP2C19) of 5.21, a clearance [7] of 13 mL/min/kg and a half-life [7] of 3 h. The “brain AUC” value ([8]; rat CNS PO PBL (0−6 h)) was 18 415 ng·h/mL, the Kp at 6 h ([8]; rat, brain/plasma, po) was 2.1 and the AUC ([8]; rat, plasma, po) was 8770 ng·h/mL. For the same molecule, the “substrate for P-glycoprotein” value (P-glycoprotein (Pgp)) was “not a substrate”, the Papp A→B (P-glycoprotein (Pgp); not told) was 24 ×10⁻⁶ cm/s and the Papp B→A (P-glycoprotein (Pgp); not told) was 14 ×10⁻⁶ cm/s. The “activity at mGlu6” value (mGlu6) was “functionally interact (with equipotency)”, the “activity against wider panel of targets” value [9] was “inactive” and the “activity against MAO-B” value [10] was 330 nM. The “activity against 96 kinase targets” value [11] was less than 30%, the pIC50 [12] was less than 4.00 and the mini-AMES result (TA98 and TA100) was “negative”. The “CYP1A2 induction Emax” value (CYP1A2 [13]) was 104 fold-induction, the pEC50 (CYP1A2 [13]; human) was 5.01 and the major metabolite (Met ID) was “oxodefluorination”. For the same molecule, the AUC (in vivo [14]) was 608 ng·h/mL, the MRT (in vivo [14]) was 2.2 h and the Vd (in vivo [14]) was 4 L/kg. For the same molecule, the clearance (in vivo [14]) was 29 mL/min/kg, the half-life (in vivo [14]) was 1.52 h and the bioavailability (in vivo [15]; in vivo) was 95%. The AUC (in vivo [15]; plasma) was 7420 ng·h/mL, the Cmax (in vivo [15]; plasma) was 875 ng/mL and the Tmax (in vivo [15]; plasma) was 2 h.
